Earlier results, collected in US10596159B2, “Method and composition for treating cachexia and eating disorders” (India Globalization Capital, Inc., priority 2015, dated 2020).
Where two headings read alike, the source gives them in different places.

Tests used:
[1] = HIV-positive and cancer patients; Gorter, 1999
[2] = advanced cancer patients, Ronga, et al. 2014

**Q.** Which appetite stimulation (Suzuki, et al. 2013) does the source give for `CN1CCC(=C2c3ccccc3C=Cc3ccccc32)CC1.Cl` [cyproheptadine, 4-(5H-dibenzo [a,d]cyclohepten-5-ylidene)-1-methylpiperidine hydrochloride] here?
**A.** effective in stimulating appetite

**Q.** And the “effect on weight loss” value (Suzuki, et al. 2013)?
**A.** only slight effects on weight loss

**Q.** What about the appetite stimulation [2] of the same compound?
**A.** only mildly stimulated appetite

**Q.** What about the “effect on progressive weight loss” value [2] of the same compound?
**A.** did not prevent progressive weight loss

**Q.** For `CCCCCc1cc(O)c2c(c1)OC(C)(C)[C@@H]1CCC(C)=C[C@@H]21` [THC, Delta-9-tetrahydrocannabinol], which appetite [1] is on record?
**A.** stimulation of appetite

**Q.** And the body weight [1]?
**A.** increase of body weight
